According to PMC6593727 (Clinical Pharmacology in Drug Development, 2019):
Read-outs that look alike come from different tables or passages of the source.

How the values were obtained:
[1] = target: CYP3A4 (Homo sapiens, UniProt P08684); settings: for AUC(0-inf): AUCinf; for Tmax: tmax (median [min‐max]); for half-life: t½
[2] = target: T1, CYP2C19 (Homo sapiens, UniProt P33261); settings: for AUC(0-inf): AUCinf; for half-life: t½
[3] = target: CYP2D6 (Homo sapiens, UniProt P10635); settings: for AUC(0-inf) / Cmax / Tmax / half-life: female, human, plasma, oral; for AUC(0-inf): AUCinf; for Tmax: tmax (median [min‐max]); for half-life: t½
[4] = target: CYP2C9 (Homo sapiens, UniProt P11712); experiment: Inje cocktail DDI study: losartan and EXP‐3174 PK, assessment of CYP2C9 activity; settings: for AUC(0-inf) / Cmax / Tmax / half-life: female, human, plasma, oral; for AUC(0-inf): AUCinf; for Tmax: tmax (median [min‐max]); for half-life: t½
[5] = target: T1, CYP2C19; settings: single oral 20 mg omeprazole with 100 mg ASP8477 vs alone, female subjects; ref first‐in‐human study (8477‐CL‐0001); cited from earlier work
[6] = cocktail alone (day 1), mean ± SD
[7] = + 20 mg ASP8477 once daily (day 7), mean ± SD
[8] = probe dextromethorphan, + 60 mg ASP8477 once daily (day 14), mean ± SD
[9] = probe dextromethorphan, + 100 mg ASP8477 once daily (day 23), mean ± SD
[10] = probe dextromethorphan, + 20 mg ASP8477 once daily (day 7)
[11] = probe dextromethorphan, + 60 mg ASP8477 once daily (day 14)
[12] = probe dextromethorphan, + 100 mg ASP8477 once daily (day 23)
[13] = probe dextromethorphan, + 20 mg ASP8477 once daily (day 7), mean ± SD
[14] = + 60 mg ASP8477 once daily (day 14), mean ± SD
[15] = + 100 mg ASP8477 once daily (day 23), mean ± SD
[16] = + 20 mg ASP8477 once daily (day 7)
[17] = + 60 mg ASP8477 once daily (day 14)
[18] = + 100 mg ASP8477 once daily (day 23)
[19] = female, human, plasma, oral, probe midazolam, + 20 mg ASP8477 once daily (day 7), mean ± SD
[20] = female, human, plasma, oral, probe midazolam, + 60 mg ASP8477 once daily (day 14), mean ± SD
[21] = female, human, plasma, oral, probe midazolam, + 100 mg ASP8477 once daily (day 23), mean ± SD
[22] = female, human, plasma, oral, + 20 mg ASP8477 once daily (day 7), mean ± SD
[23] = female, human, plasma, oral, + 60 mg ASP8477 once daily (day 14), mean ± SD
[24] = female, human, plasma, oral, cocktail alone (day 1), mean ± SD

Sequence of CYP2C9 (P11712 whole entry): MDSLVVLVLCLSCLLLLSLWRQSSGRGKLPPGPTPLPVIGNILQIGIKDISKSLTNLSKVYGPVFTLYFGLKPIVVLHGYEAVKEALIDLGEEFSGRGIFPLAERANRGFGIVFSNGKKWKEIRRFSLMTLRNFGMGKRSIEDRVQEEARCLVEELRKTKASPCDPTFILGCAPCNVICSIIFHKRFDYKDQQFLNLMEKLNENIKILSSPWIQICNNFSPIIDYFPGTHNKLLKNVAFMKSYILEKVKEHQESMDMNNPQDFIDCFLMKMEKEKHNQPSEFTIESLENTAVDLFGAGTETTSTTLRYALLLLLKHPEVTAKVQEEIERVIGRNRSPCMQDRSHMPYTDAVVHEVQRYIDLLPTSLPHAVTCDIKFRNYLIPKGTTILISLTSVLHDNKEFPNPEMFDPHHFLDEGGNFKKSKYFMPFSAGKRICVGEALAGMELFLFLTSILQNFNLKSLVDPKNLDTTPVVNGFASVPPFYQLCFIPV
Sequence of CYP2D6 (P10635 whole entry): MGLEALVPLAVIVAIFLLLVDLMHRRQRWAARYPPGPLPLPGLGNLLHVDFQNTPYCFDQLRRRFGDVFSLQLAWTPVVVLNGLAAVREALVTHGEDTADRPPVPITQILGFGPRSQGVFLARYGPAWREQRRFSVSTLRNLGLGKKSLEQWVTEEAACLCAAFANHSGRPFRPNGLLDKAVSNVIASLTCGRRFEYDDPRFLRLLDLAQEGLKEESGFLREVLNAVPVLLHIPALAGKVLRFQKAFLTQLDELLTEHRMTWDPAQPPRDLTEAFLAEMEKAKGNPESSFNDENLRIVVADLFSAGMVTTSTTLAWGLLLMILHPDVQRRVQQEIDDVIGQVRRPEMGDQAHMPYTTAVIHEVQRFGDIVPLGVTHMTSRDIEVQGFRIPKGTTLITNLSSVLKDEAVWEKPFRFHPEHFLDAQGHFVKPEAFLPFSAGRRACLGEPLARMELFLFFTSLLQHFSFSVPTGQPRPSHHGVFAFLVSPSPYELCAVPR
Sequence of CYP3A4 (P08684 whole entry): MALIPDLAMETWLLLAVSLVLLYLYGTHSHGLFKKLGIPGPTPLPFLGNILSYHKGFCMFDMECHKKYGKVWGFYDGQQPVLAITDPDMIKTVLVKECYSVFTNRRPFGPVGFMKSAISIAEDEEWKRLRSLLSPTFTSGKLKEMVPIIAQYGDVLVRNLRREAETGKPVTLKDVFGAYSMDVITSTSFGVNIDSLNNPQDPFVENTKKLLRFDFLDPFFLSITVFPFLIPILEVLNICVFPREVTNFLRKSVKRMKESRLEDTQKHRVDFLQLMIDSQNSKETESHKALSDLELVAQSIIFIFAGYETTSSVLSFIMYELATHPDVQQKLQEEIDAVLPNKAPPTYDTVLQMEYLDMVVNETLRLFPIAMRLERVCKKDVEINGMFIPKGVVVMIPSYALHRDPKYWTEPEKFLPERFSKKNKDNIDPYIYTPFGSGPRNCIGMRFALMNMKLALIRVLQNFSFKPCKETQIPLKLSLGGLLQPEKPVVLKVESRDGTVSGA
T1 sequence (P33261 whole entry): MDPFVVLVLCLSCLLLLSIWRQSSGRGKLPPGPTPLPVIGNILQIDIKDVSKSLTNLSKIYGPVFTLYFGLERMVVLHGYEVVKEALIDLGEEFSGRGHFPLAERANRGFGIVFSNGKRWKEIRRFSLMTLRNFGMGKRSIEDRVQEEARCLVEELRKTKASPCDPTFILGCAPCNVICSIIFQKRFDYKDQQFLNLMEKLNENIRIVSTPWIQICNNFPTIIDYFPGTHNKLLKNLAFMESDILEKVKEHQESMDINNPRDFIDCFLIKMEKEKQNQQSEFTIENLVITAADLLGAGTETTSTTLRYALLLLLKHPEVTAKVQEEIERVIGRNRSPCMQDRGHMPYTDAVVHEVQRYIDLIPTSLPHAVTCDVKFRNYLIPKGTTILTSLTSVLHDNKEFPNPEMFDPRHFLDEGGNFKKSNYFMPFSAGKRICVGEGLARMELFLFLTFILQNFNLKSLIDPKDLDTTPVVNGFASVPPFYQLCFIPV

Structure (SMILES): OCc1ncc2n1-c1ccc(Cl)cc1C(c1ccccc1F)=NC2 [1‐OH‐Midazolam, 1‐hydroxymidazolam]
- tmax (median [min‐max]) ([1]; cocktail alone (day 1)): 0.52 (0.48‐1.0) h
- AUCinf [1, 6]: 12 ± 6.1 ng·h/mL
- Cmax [1, 6]: 5.5 ± 3.0 ng/mL
- t½ [1, 6]: 7.8 ± 13 h

Structure (SMILES): COc1ccc2nc([S+]([O-])Cc3ncc(CO)c(OC)c3C)[nH]c2c1 (stereo not drawn) [5‐OH‐Omeprazole, 5‐hydroxyomeprazole]
- tmax (median [min‐max]) ([2]; cocktail alone (day 1)): 2.0 (0.98‐4.0) h
- AUCinf [2, 6]: 550 ± 130 ng·h/mL
- Cmax [2, 6]: 230 ± 76 ng/mL
- t½ [2, 6]: 1.4 ± 0.56 h

Structure (SMILES): COc1ccc2c(c1)[C@]13CCCC[C@@H]1[C@H](C2)N(C)CC3 [Dextromethorphan, dextromethorphan, reference compound]
- CL/F [3, 6]: 4000 ± 3200 L/h
- AUC(0-inf) [3, 7]: 16 ± 12 ng·h/mL
- AUC(0-inf) [3, 6]: 12 ± 7.9 ng·h/mL
- Cmax [3, 7]: 1.8 ± 1.2 ng/mL
- Cmax [3, 6]: 1.3 ± 0.72 ng/mL
- AUC(0-inf) [3, 8]: 39 ± 25 ng·h/mL
- AUC(0-inf) [3, 9]: 65 ± 44 ng·h/mL
- Cmax [3, 8]: 3.8 ± 2.3 ng/mL
- Cmax [3, 9]: 5.6 ± 3.1 ng/mL
- Tmax [3, 10]: 3 h
- Tmax [3, 11]: 3.1 h
- Tmax [3, 12]: 3 h
- half-life [3, 13]: 462 ± 126 min
- half-life [3, 8]: 558 ± 84 min
- half-life [3, 9]: 594 ± 90 min
- Tmax ([3]; cocktail alone (day 1)): 2 h
- half-life [3, 6]: 480 ± 150 min

Structure (SMILES): CN1CC[C@@]23CCCC[C@@H]2[C@@H]1Cc1ccc(O)cc13 [Dextrorphan, dextrorphan]
- AUC(0-inf) [3, 7]: 2400 ± 420 ng·h/mL
- AUC(0-inf) [3, 6]: 2400 ± 450 ng·h/mL
- Cmax [3, 7]: 470 ± 110 ng/mL
- Cmax [3, 6]: 490 ± 133 ng/mL
- AUC(0-inf) [3, 8]: 2700 ± 510 ng·h/mL
- AUC(0-inf) [3, 9]: 3000 ± 520 ng·h/mL
- Cmax [3, 8]: 430 ± 110 ng/mL
- Cmax [3, 9]: 400 ± 100 ng/mL
- Tmax [3, 10]: 2 h
- Tmax [3, 11]: 3.1 h
- Tmax [3, 12]: 3 h
- half-life [3, 13]: 390 ± 102 min
- half-life [3, 8]: 528 ± 126 min
- half-life [3, 9]: 594 ± 144 min
- Tmax ([3]; cocktail alone (day 1)): 2 h
- half-life [3, 6]: 348 ± 72 min

Structure (SMILES): CCCCc1nc(Cl)c(C(=O)O)n1Cc1ccc(-c2ccccc2-c2nn[nH]n2)cc1 [EXP‐3174, losartan acid]
- AUC(0-inf) [4, 7]: 1100 ± 280 ng·h/mL
- AUC(0-inf) [4, 14]: 960 ± 240 ng·h/mL
- AUC(0-inf) [4, 15]: 780 ± 250 ng·h/mL
- AUC(0-inf) [4, 6]: 1100 ± 370 ng·h/mL
- Cmax [4, 7]: 96 ± 48 ng/mL
- Cmax [4, 14]: 54 ± 26 ng/mL
- Cmax [4, 15]: 35 ± 19 ng/mL
- Cmax [4, 6]: 100 ± 65 ng/mL
- Tmax [4, 16]: 5 h
- Tmax [4, 17]: 8 h
- Tmax [4, 18]: 8.1 h
- Tmax ([4]; cocktail alone (day 1)): 4 h
- half-life [4, 7]: 528 ± 210 min
- half-life [4, 14]: 780 ± 222 min
- half-life [4, 15]: 720 ± 150 min
- half-life [4, 6]: 480 ± 38.4 min

Structure (SMILES): CCCCc1nc(Cl)c(CO)n1Cc1ccc(-c2ccccc2-c2nn[nH]n2)cc1 [Losartan, losartan, reference compound]
- CL/F [4, 6]: 140 ± 61 L/h
- AUC(0-inf) [4, 7]: 230 ± 100 ng·h/mL
- AUC(0-inf) [4, 14]: 320 ± 140 ng·h/mL
- AUC(0-inf) [4, 15]: 410 ± 180 ng·h/mL
- AUC(0-inf) [4, 6]: 220 ± 100 ng·h/mL
- Cmax [4, 7]: 78 ± 37 ng/mL
- Cmax [4, 14]: 81 ± 59 ng/mL
- Cmax [4, 15]: 80 ± 64 ng/mL
- Cmax [4, 6]: 64 ± 33 ng/mL
- Tmax [4, 16]: 0.52 h
- Tmax [4, 17]: 0.52 h
- Tmax [4, 18]: 0.5 h
- Tmax ([4]; cocktail alone (day 1)): 1 h
- half-life [4, 7]: 240 ± 132 min
- half-life [4, 14]: 300 ± 132 min
- half-life [4, 15]: 456 ± 198 min
- half-life [4, 6]: 222 ± 150 min

Structure (SMILES): Cc1ncc2n1-c1ccc(Cl)cc1C(c1ccccc1F)=NC2 [Midazolam, midazolam]
- CL/F [1, 6]: 66 ± 15 L/h
- AUC(0-inf) [1, 19]: 38 ± 11 ng·h/mL
- AUC(0-inf) [1, 20]: 49 ± 15 ng·h/mL
- AUC(0-inf) [1, 21]: 51 ± 15 ng·h/mL
- Cmax ([1]; female, human, plasma, oral, probe midazolam, Cmax, + 20 mg ASP8477 once daily (day 7), mean ± SD): 16 ± 5.7 ng/mL
- Cmax ([1]; female, human, plasma, oral, probe midazolam, Cmax, + 60 mg ASP8477 once daily (day 14), mean ± SD): 20 ± 5.1 ng/mL
- Cmax ([1]; female, human, plasma, oral, probe midazolam, Cmax, + 100 mg ASP8477 once daily (day 23), mean ± SD): 21 ± 5.1 ng/mL
- Tmax ([1]; female, human, plasma, oral, probe midazolam, + 20 mg ASP8477 once daily (day 7)): 31.2 min
- Tmax ([1]; female, human, plasma, oral, probe midazolam, + 60 mg ASP8477 once daily (day 14)): 31.2 min
- Tmax ([1]; female, human, plasma, oral, probe midazolam, + 100 mg ASP8477 once daily (day 23)): 30 min
- Tmax ([1]; female, human, plasma, oral, probe midazolam, cocktail alone (day 1)): 31.2 min
- half-life [1, 19]: 300 ± 55.8 min
- half-life [1, 20]: 306 ± 57 min
- half-life [1, 21]: 306 ± 72 min

Structure (SMILES): COc1ccc2[nH]c([S+]([O-])Cc3ncc(C)c(OC)c3C)nc2c1 (stereo not drawn) [Omeprazole, omeprazole]
- increase of omeprazole AUCinf [5]: 7 fold
- increase of omeprazole Cmax [5]: 3.5 fold
- CL/F [2, 6]: 40 ± 20 L/h
- AUC(0-inf) [2, 22]: 1200 ± 520 ng·h/mL
- AUC(0-inf) [2, 23]: 2500 ± 680 ng·h/mL
- AUC(0-inf) ([2]; female, human, plasma, oral, + 100 mg ASP8477 once daily (day 23), mean ± SD): 3300 ± 1100 ng·h/mL
- AUC(0-inf) [2, 24]: 630 ± 300 ng·h/mL
- Cmax ([2]; female, human, plasma, oral, Cmax, + 20 mg ASP8477 once daily (day 7), mean ± SD): 640 ± 190 ng/mL
- Cmax ([2]; female, human, plasma, oral, Cmax, + 60 mg ASP8477 once daily (day 14), mean ± SD): 910 ± 260 ng/mL
- Cmax ([2]; female, human, plasma, oral, Cmax, + 100 mg ASP8477 once daily (day 23), mean ± SD): 1100 ± 250 ng/mL
- Cmax ([2]; female, human, plasma, oral, Cmax, cocktail alone (day 1), mean ± SD): 320 ± 150 ng/mL
- half-life [2, 22]: 46.2 ± 12 min
- half-life [2, 23]: 66 ± 15 min
- half-life [2, 24]: 47.4 ± 10.2 min
